Source: patent publication US20140343000A1 (priority 2011, published 2014)
pEC50: −log10 of the molar value.

test system: recombinant NL4-3 virus (Renilla luciferase in nef, Gag P373S; NLRluc) in MT-2 cells; experiment: whole plant or invertebrate; assay type: cell-based, HIV; details: Renilla, NL43, luciferase activity in cells infected for 4-5 days with NLRluc recombinants, serial dilutions of inhibitor; class symbols (key in Table 1); read-out: EC50
Outline: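 Virus from 293T transfection, titered in MT-2 by luciferase. MT-2 (RPMI, 10% HI-FBS) infected ± inhibitor serial dilutions, 4-5 d. Readout: Dual Luciferase premix (lysis:reagent:Stop & Glo 2:1:1), immediate luminescence.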

Row | Structure (SMILES) | pEC50
1 | C=C(C)[C@@H]1CC[C@]2(NC(=O)CN[C@H](CO)c3ccccc3)CC[C@]3(C)[C@H](CC[C@@H]4[C@@]5(C)CC=C(c6ccc(C(=O)O)cc6)C(C)(C)[C@@H]5CC[C@]43C)[C@@H]12 [Example 108, 4-((1R,3aS,5aR,5bR,7aR,11aS,11bR,13aR,13bR)-3a-(2-((S)-2-hydroxy-1-phenylethylamino)acetamido)-5a,5b,8,8,11a-pentamethyl-1-(prop-1-en-2-yl)-2,3,3a,4,5,5a,5b,6,7,7a,8,11,11a,11b,12,13,13a,13b-octadecahydro-1H-cyclopenta[a]chrysen-9-yl)benzoic acid] | > 7.00
2 | C=C(C)[C@@H]1CC[C@]2(NC(=O)CN3CC[C@H](NC(=O)OC(C)(C)C)C3=O)CC[C@]3(C)[C@H](CC[C@@H]4[C@@]5(C)CC=C(c6ccc(C(=O)O)cc6)C(C)(C)[C@@H]5CC[C@]43C)[C@@H]12 [Example 109, 4-((1R,3aS,5aR,5bR,7aR,11aS,11bR,13aR,13bR)-3a-(2-((S)-3-(tert-butoxycarbonylamino)-2-oxopyrrolidin-1-yl)acetamido)-5a,5b,8,8,11a-pentamethyl-1-(prop-1-en-2-yl)-2,3,3a,4,5,5a,5b,6,7,7a,8,11,11a,11b,12,13,13a,13b-octadecahydro-1H-cyclopenta[a]chrysen-9-yl)benzoic acid] | > 7.00
3 | C=C(C)[C@@H]1CC[C@]2(NC(=O)C(NC3CCS(=O)(=O)C3)C(C)C)CC[C@]3(C)[C@H](CC[C@@H]4[C@@]5(C)CC=C(c6ccc(C(=O)O)cc6)C(C)(C)[C@@H]5CC[C@]43C)[C@@H]12 (stereo partly drawn) [Example 112, benzoic acid, 4-[(1R,3aS,5aR,5bR,7aR,11aS,11bR,13aR,13bR)-2,3,3a,4,5,5a,5b,6,7,7a,8,11,11a,11b,12,13,13a,13b-octadecahydro-5a,5b,8,8,11a-pentamethyl-1-(1-methylethenyl)-3a-[[3-methyl-1-oxo-2-[(tetrahydro-1,1-dioxido-3-thienyl)amino]butyl]amino]-1H-cyclopenta[a]chrysen-9-yl]] | > 7.00
4 | C=C(C)[C@@H]1CC[C@]2(NC(=O)C3CCCN3S(C)(=O)=O)CC[C@]3(C)[C@H](CC[C@@H]4[C@@]5(C)CC=C(c6ccc(C(=O)O)cc6)C(C)(C)[C@@H]5CC[C@]43C)[C@@H]12 (stereo partly drawn) [Example 113, 4-((1R,3aS,5aR,5bR,7aR,11aS,11bR,13aR,13bR)-5a,5b,8,8,11a-pentamethyl-3a-(1-(methylsulfonyl)pyrrolidine-2-carboxamido)-1-(prop-1-en-2-yl)-2,3,3a,4,5,5a,5b,6,7,7a,8,11,11a,11b,12,13,13a,13b-octadecahydro-1H-cyclopenta[a]chrysen-9-yl)benzoic acid] | > 7.00
5 | C=C(C)[C@@H]1CC[C@]2(NC(=O)[C@@H]3CC(F)(F)CN3C(=O)OC(C)(C)C)CC[C@]3(C)[C@H](CC[C@@H]4[C@@]5(C)CC=C(c6ccc(C(=O)O)cc6)C(C)(C)[C@@H]5CC[C@]43C)[C@@H]12 [Example 114, 4-((1R,3aS,5aR,5bR,7aR,11aS,11bR,13aR,13bR)-3a-((S)-1-(tert-butoxycarbonyl)-4,4-difluoropyrrolidine-2-carboxamido)-5a,5b,8,8,11a-pentamethyl-1-(prop-1-en-2-yl)-2,3,3a,4,5,5a,5b,6,7,7a,8,11,11a,11b,12,13,13a,13b-octadecahydro-1H-cyclopenta[a]chrysen-9-yl)benzoic acid] | > 7.00
6 | C=C(C)[C@@H]1CC[C@]2(NC(=O)CNS(=O)(=O)c3cccs3)CC[C@]3(C)[C@H](CC[C@@H]4[C@@]5(C)CC=C(c6ccc(C(=O)O)cc6)C(C)(C)[C@@H]5CC[C@]43C)[C@@H]12 [Example 115, 4-((1R,3aS,5aR,5bR,7aR,11aS,11bR,13aR,13bR)-5a,5b,8,8,11a-pentamethyl-1-(prop-1-en-2-yl)-3a-(2-(thiophene-2-sulfonamido)acetamido)-2,3,3a,4,5,5a,5b,6,7,7a,8,11,11a,11b,12,13,13a,13b-octadecahydro-1H-cyclopenta[a]chrysen-9-yl)benzoic acid] | > 7.00
7 | C=C(C)[C@@H]1CC[C@]2(NC(=O)C(CC)NC3CCS(=O)(=O)C3)CC[C@]3(C)[C@H](CC[C@@H]4[C@@]5(C)CC=C(c6ccc(C(=O)O)cc6)C(C)(C)[C@@H]5CC[C@]43C)[C@@H]12 (stereo partly drawn) [Example 116, benzoic acid, 4-[(1R,3aS,5aR,5bR,7aR,11aS,11bR,13aR,13bR)-2,3,3a,4,5,5a,5b,6,7,7a,8,11,11a,11b,12,13,13a,13b-octadecahydro-5a,5b,8,8,11a-pentamethyl-1-(1-methylethenyl)-3a-[[1-oxo-2-[(tetrahydro-1,1-dioxido-3-thienyl)amino]butyl]amino]-1H-cyclopenta[a]chrysen-9-yl]] | > 7.00
8 | C=C(C)[C@@H]1CC[C@]2(NC(=O)CN3CCCCS3(=O)=O)CC[C@]3(C)[C@H](CC[C@@H]4[C@@]5(C)CC=C(c6ccc(C(=O)O)cc6)C(C)(C)[C@@H]5CC[C@]43C)[C@@H]12 [Example 117, benzoic acid, 4-[(1R,3aS,5aR,5bR,7aR,11aS,11bR,13aR,13bR)-2,3,3a,4,5,5a,5b,6,7,7a,8,11,11a,11b,12,13,13a,13b-octadecahydro-5a,5b,8,8,11a-pentamethyl-1-(1-methylethenyl)-3a-[[(tetrahydro-1,1-dioxido-2H-1,2-thiazin-2-yl)acetyl]amino]-1H-cyclopenta[a]chrysen-9-yl]] | > 7.00
9 | C=C(C)[C@@H]1CC[C@]2(NC(=O)CN3CCC(F)(F)CC3)CC[C@]3(C)[C@H](CC[C@@H]4[C@@]5(C)CC=C(c6ccc(C(=O)O)cc6)C(C)(C)[C@@H]5CC[C@]43C)[C@@H]12 [Example 118, 4-((1R,3aS,5aR,5bR,7aR,11aS,11bR,13aR,13bR)-3a-(2-(4,4-difluoropiperidin-1-yl)acetamido)-5a,5b,8,8,11a-pentamethyl-1-(prop-1-en-2-yl)-2,3,3a,4,5,5a,5b,6,7,7a,8,11,11a,11b,12,13,13a,13b-octadecahydro-1H-cyclopenta[a]chrysen-9-yl)benzoic acid] | > 7.00
10 | C=C(C)[C@@H]1CC[C@]2(NC(=O)CN3CCC(F)(F)C3)CC[C@]3(C)[C@H](CC[C@@H]4[C@@]5(C)CC=C(c6ccc(C(=O)O)cc6)C(C)(C)[C@@H]5CC[C@]43C)[C@@H]12 [Example 119, 4-((1R,3aS,5aR,5bR,7aR,11aS,11bR,13aR,13bR)-3a-(2-(3,3-difluoropyrrolidin-1-yl)acetamido)-5a,5b,8,8,11a-pentamethyl-1-(prop-1-en-2-yl)-2,3,3a,4,5,5a,5b,6,7,7a,8,11,11a,11b,12,13,13a,13b-octadecahydro-1H-cyclopenta[a]chrysen-9-yl)benzoic acid] | > 7.00
11 | C=C(C)[C@@H]1CC[C@]2(NC(=O)Cc3cccnc3)CC[C@]3(C)[C@H](CC[C@@H]4[C@@]5(C)CC=C(c6ccc(C(=O)O)cc6)C(C)(C)[C@@H]5CC[C@]43C)[C@@H]12 [Example 120, benzoic acid, 4-[(1R,3aS,5aR,5bR,7aR,11aS,11bR,13aR,13bR)-2,3,3a,4,5,5a,5b,6,7,7a,8,11,11a,11b,12,13,13a,13b-octadecahydro-5a,5b,8,8,11a-pentamethyl-1-(1-methylethenyl)-3a-[(3-pyridinylacetyl)amino]-1H-cyclopenta[a]chrysen-9-yl]] | > 7.00
